Laboratory results as given in patent US20020002269A1, “ARTEMIN, A NEUROTROPHIC FACTOR” (priority 1998, published 2002).

System: NLF cells transformed with GFRα2
Assay: Ga14-Elk/Ga14-Luc reporter in NLF neuroblastoma cells transformed with GFRα2
Type: cell-based
Conditions: factor for 24 hours, low-serum medium, FIG. 10B
Description: Thus, to directly test which receptor combinations can form functional receptors for artemin, expression plasmids for the individual GFRA coreceptors together with the Ga14-Elk/Ga14-Luc reporter system were transiently transformed into fibroblasts that stably express RET. […]
NLF neuroblastoma cells, which naturally express GFRα2/RET (Tansey et al., submitted), or the RET-3T3 cells were plated at 85,000 cells/well in 12-well plates, and cotransfected with the reporter plasmids Ga14-Luc and CMV-Ga14-Elk (250 ng/well and 50 ng/well, respectively), CMV-lacZ (50 ng/well) for transfection normalization, one of the CMV-GFRA expression plasmids (500 ng/well), and pBluescript (650 ng/well) as carrier for a total of 1.5 μg DNA/well using the Superfect reagent (Qiagen) according to the manufacturer's instructions. […] Measurement of luciferase and β-galactosidase activity was measured using a luminometer and performed as described (Svaren et al., EMBO J 17:6010-6019, 1998). The average luciferase activity of duplicate samples was normalized to β-galactosidase activity of the cotransformed lacZ reporter, and fold activation was calculated by dividing the normalized activity in factor-treated cells by that in the no treatment control.

artemin: recombinant mature human artemin (FIG. 3A, SEQ ID NO:3) with 8-histidine tag, produced in E. coli; GDNF family neurotrophic factor
response of NLF cells transformed with GFRα2 (luciferase reporter): not GFRα2
